The IC50 is the concentration at which inhibition is half-maximal. A low value points to inhibition by little substance.

Test [1] deals with M3 (Homo sapiens, UniProt P20309). In words: NIMH PDSP radioligand binding, M3.
Test [2] concerns PCP site within the NMDAR channel.
Procedure: (§3) The reaction was terminated by vacuum filtration using a 24 well cell harvester (Brandel, Gaithersburg, MD) over presoaked GF/B glass fiber filters (Brandel, Gaithersburg, MD). Filters were washed with room temperature assay buffer (3 x 5 mL). […] IC50 values were determined in Graphpad Prism 5.0 using non-linear regression with log-concentration plotted against percent specific binding. […] Ki values were calculated using the equation of Cheng and Prusoff [24]. […] Protein concentration was determined via the Bradford method using Coomassie protein assay reagent (Sigma, USA) [25] with rat albumin (Sigma, USA) as standard. Experiments were performed in duplicate and repeated a minimum of three times.
Test [3] deals with T1, Alpha2C (Homo sapiens, UniProt P18825).
T1 sequence (P18825 1-462): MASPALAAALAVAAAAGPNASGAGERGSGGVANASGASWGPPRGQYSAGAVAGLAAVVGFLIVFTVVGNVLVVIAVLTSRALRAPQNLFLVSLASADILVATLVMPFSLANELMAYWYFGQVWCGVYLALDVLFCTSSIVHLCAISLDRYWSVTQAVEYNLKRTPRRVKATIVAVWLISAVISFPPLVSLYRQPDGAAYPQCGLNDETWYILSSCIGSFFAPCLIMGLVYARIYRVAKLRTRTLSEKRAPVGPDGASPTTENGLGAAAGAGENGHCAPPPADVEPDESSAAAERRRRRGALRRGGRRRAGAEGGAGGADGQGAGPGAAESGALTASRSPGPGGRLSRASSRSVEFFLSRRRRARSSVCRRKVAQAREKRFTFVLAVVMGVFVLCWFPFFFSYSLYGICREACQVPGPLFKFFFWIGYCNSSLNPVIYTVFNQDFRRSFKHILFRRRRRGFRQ
Kind of test: NIMH PDSP radioligand binding, Alpha2C. How it is done:
(§1) Radioligands and concentrations used for additional 45 CNS receptor binding assays are listed as supporting information (S1 Table). This work was performed by the National Institute of Mental Health Psychoactive Drug Screening Program (NIMH PDSP) as described previously.[26] Briefly target compounds were dissolved in DMSO and subjected to a primary screen at 10,000 nM concentration. […] Additional experimental details are available in the NIMH PDSP assay protocol book.

For test [4], the target named is KOR (Homo sapiens, UniProt P41145). Kind of test: NIMH PDSP radioligand binding, KOR. How it is done: as §1
KOR, sequence (P41145 whole entry): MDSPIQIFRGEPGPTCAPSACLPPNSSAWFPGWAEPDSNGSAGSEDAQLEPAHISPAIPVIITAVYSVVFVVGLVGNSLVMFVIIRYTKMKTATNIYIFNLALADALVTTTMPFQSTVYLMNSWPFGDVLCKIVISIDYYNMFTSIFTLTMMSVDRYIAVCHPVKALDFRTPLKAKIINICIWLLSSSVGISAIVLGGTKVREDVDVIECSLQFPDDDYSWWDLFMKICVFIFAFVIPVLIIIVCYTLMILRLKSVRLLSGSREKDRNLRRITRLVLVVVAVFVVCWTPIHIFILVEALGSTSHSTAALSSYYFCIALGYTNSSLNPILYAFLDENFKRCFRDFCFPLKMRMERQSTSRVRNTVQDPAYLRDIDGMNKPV
Test [5] has as its target Alpha2A (Homo sapiens, UniProt P08913). In words: NIMH PDSP radioligand binding, Alpha2A. How it is done:
as §1

The target in test [6] is M5 (Homo sapiens, UniProt P08912). Kind of test: NIMH PDSP radioligand binding, M5.
M5, sequence (P08912 whole entry): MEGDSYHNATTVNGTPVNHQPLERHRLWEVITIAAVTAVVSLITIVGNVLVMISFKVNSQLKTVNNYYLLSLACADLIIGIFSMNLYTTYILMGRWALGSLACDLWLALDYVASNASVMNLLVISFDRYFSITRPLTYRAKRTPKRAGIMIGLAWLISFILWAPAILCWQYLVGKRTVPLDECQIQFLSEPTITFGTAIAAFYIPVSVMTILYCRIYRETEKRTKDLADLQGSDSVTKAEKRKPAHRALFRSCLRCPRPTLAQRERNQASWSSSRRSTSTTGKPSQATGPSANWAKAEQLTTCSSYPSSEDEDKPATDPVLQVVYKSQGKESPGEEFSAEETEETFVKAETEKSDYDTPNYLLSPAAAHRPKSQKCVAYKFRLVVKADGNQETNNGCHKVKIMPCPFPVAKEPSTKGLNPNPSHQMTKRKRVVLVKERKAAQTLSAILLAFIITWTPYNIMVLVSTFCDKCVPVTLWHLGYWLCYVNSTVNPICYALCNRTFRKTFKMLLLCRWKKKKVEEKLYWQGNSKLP
In test [7] the target is T2, DAT (Homo sapiens, UniProt Q01959). Kind of test: NIMH PDSP radioligand binding, DAT. How it is done: as §1
T2 sequence (Q01959 whole entry): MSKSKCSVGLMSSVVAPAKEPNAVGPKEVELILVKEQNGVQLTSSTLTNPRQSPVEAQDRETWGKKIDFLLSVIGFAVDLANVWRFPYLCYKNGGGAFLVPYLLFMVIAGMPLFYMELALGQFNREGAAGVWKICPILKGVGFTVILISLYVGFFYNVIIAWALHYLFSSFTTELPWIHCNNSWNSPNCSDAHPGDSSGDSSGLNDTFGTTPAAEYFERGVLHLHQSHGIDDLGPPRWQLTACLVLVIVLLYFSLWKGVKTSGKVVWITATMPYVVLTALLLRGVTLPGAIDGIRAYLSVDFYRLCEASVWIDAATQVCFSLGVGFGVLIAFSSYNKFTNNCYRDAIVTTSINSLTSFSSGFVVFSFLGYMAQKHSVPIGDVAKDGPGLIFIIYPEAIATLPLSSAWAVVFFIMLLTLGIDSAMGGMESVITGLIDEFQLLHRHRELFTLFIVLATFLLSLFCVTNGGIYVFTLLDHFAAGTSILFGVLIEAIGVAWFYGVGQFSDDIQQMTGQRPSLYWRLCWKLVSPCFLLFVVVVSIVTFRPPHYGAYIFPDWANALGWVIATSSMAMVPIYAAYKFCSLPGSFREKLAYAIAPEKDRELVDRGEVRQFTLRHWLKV
In test [8] the target is M2 (Homo sapiens, UniProt P08172). Kind of test: NIMH PDSP radioligand binding, M2.
M2, sequence (P08172 whole entry): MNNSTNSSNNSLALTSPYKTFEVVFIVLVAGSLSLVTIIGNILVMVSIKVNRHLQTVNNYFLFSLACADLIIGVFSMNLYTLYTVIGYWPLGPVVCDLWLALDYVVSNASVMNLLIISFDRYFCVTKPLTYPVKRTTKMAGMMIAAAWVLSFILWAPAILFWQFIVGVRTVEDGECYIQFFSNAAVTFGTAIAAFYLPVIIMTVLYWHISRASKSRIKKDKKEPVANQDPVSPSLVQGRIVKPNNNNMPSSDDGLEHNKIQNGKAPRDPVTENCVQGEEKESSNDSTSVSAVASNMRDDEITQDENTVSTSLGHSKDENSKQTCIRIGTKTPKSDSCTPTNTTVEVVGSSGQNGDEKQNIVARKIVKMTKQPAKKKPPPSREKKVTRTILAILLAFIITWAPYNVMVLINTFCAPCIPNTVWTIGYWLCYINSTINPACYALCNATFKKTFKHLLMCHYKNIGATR
Test [9] has as its target T3, Human SERT (Homo sapiens, UniProt P31645).
T3 construct: expressed in transfected cells; host or cells: HEK293
In words: Monoamine reuptake inhibition assay, SERT in HEK293 cells. Format: cell-based. How it is done:
(§2) Monoamine reuptake inhibition assays were performed via the NIMH PDSP as previously described.[28] In brief, the neurotransmitter transporter uptake assay kit (R8174) (Molecular Devices) was used. Human monoamine transporters (DAT, NET and SERT) were stably expressed in HEK293 cells. Assay buffer consisted of 20 mM HEPES, 1x HBSS at pH 7.4. Cells were plated in Pol-L-Lys (PLL) coated 384-well black clear bottom cell culture plates with a density of 15,000 cells/well. Cells were incubated for at least 6 h prior to assay. Media was removed and replaced with 20 μL assay buffer and 5 μL of drug or positive control (cocaine or nisoxetine) as a 5X stock. Cells were incubated for 30 min at 37°C. 25 μL of dye solution was then added and following an additional 30 min incubation (at 37°C) fluorescence intensity was measured using a FlexStation II (bottom read mode, excitation wavelength = […], emission = 520 nM with a cutoff of 510 nM). […] Additional details are available in the NIMH PDSP assay protocol book.

The target of test [10] is MOR (Homo sapiens, UniProt P35372). In words: NIMH PDSP radioligand binding, MOR. How it is done:
as §1

The subject of test [11] is NMDAR. Also noted: method as in earlier work. The following applies: [3H]-TCP; cited from earlier work.
For test [12], the target named is T4, NET (Homo sapiens, UniProt P23975). Kind of test: Monoamine reuptake inhibition assay, NET in HEK293 cells. Format: cell-based. Also noted: expressed in transfected cells; host or cells: HEK293. The following applies: for Hill slope NET reuptake inhibition: HEK293 cells. How it is done: as §2
T4 sequence (P23975 whole entry): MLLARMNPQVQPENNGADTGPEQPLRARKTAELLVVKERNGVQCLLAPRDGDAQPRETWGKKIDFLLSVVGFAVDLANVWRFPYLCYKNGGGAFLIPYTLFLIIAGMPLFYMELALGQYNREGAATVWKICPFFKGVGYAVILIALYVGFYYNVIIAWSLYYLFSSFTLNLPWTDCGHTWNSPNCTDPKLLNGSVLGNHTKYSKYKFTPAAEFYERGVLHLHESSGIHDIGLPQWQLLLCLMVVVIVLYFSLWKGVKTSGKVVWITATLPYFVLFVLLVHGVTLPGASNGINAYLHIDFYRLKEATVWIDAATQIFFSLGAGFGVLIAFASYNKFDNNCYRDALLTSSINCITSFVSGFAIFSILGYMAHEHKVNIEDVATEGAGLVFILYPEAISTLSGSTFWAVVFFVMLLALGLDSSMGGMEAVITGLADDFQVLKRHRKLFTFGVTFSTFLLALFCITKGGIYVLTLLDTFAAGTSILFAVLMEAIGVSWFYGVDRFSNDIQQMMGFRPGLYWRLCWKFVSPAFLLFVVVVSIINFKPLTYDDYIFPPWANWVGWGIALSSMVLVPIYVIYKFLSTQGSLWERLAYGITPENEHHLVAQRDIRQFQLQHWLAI
Test [13] has as its target M1 (Homo sapiens, UniProt P11229). Kind of test: NIMH PDSP radioligand binding, M1.
The target in test [14] is T2, DAT. Kind of test: Monoamine reuptake inhibition assay, DAT in HEK293 cells. It counts as cell-based. On the set-up: expressed in transfected cells; host or cells: HEK293. The following applies: for Hill slope DAT reuptake inhibition: HEK293 cells. How it is done: as §2
Test [15] deals with M4 (Homo sapiens, UniProt P08173). In words: NIMH PDSP radioligand binding, M4.
Test [16] concerns the target PCP site within the NMDAR channel. Kind of test: NMDAR binding, [3H]-MK-801 displacement in rat forebrain homogenate.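 On all read-outs here: IC50 by nonlinear regression of percent specific binding versus log concentration, Ki from IC50 via Cheng-Prusoff, raw counts in CPM, duplicates repeated at least three times.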 The following applies: for Ki: read-out: Ki ± SEM, [3H]-(+)-MK-801, rat forebrain, Cheng-Prusoff; for [3H]-MK-801 binding counts (Count1-3): raw counts, three counts.
Procedure: as §3
Test [17] addresses T5, Sigma 2 (Rattus norvegicus, UniProt Q5U3Y7).
T5 sequence (Q5U3Y7 1-176): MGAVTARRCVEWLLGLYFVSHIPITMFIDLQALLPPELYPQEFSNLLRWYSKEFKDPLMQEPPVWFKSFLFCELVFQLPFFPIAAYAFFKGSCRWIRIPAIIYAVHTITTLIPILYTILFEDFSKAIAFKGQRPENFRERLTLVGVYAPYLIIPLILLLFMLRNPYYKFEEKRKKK
In words: NIMH PDSP radioligand binding, Sigma 2. How it is done:
as §1

Test [18] addresses H1 (Homo sapiens, UniProt P35367). In words: NIMH PDSP radioligand binding, H1. How it is done:
as §1

For test [19], the target named is T4, NET. Kind of test: NIMH PDSP radioligand binding, NET. How it is done: as §1
Test [20] deals with H3 (Homo sapiens, UniProt Q9Y5N1). In words: NIMH PDSP radioligand binding, H3. How it is done:
as §1

For test [21], the target named is NMDAR. The following applies: [3H]-MK-801, rat cortex and hippocampus membranes; read-out: NMDAR affinity; cited from earlier work.
Test [22] has as its system NMDA receptor. Kind of test: NMDA receptor-mediated fEPSP (NMDAR-fEPSP) in CA1 of hippocampal slices. Format: cell-based, rat. The following applies: 10 μM. How it is done: Male Wistar rats (Crl:Wi; Charles River, UK) aged 9–10 wk were sacrificed by neck vertebral dislocation (schedule 1 method) according to the United Kingdom (Scientific Procedures) Act of 1986. […] The brain was cut parasagittally into 400 μm sections and hippocampal slices were removed, stored and placed in a submerged recording chamber at 28–30°C. Recordings of synaptic activity were made, analyzed and presented as described. A bipolar electrode was used to deliver stimuli (0.03 Hz) to the Schaffer collateral pathway to enable recording of field excitatory synaptic potentials (fEPSPs) using a glass microelectrode positioned in the stratum radiatum of area CA1. […] After 30 min of stable control responses, 1 and 10 μM solutions of the individual compounds were added to the perfusate for 3–12 h while recording the amplitude and area of the NMDAR-fEPSP on-line using WinLTP [31]. Single exponential curves were fitted to the graphs and curves extrapolated to show likely half-times and minimum plateau responses achieved with each concentration of the compounds. Raw data for all fEPSP experiments are provided as supporting information (S2, S3 and S4 Files).

Several values for one entry are separate records, joined by “and”; a condition that tells them apart may be missing. Identical values can stand only once. Counter-ions that a name gives are not always drawn.

M3, sequence (P20309 whole entry): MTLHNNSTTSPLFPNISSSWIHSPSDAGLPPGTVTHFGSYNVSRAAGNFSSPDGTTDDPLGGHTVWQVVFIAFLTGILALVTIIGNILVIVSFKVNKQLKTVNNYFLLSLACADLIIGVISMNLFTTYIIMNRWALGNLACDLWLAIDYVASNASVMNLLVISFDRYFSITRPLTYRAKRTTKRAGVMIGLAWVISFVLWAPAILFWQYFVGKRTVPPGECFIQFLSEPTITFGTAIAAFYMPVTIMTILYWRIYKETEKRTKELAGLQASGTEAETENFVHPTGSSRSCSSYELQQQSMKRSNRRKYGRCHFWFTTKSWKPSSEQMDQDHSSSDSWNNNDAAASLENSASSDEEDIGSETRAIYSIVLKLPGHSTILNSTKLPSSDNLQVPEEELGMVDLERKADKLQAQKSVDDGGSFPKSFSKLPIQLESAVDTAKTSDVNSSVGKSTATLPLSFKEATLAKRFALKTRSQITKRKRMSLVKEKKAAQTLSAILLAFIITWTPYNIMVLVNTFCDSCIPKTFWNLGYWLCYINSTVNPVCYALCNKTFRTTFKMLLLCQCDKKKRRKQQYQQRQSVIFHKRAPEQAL
T3 sequence (P31645 whole entry): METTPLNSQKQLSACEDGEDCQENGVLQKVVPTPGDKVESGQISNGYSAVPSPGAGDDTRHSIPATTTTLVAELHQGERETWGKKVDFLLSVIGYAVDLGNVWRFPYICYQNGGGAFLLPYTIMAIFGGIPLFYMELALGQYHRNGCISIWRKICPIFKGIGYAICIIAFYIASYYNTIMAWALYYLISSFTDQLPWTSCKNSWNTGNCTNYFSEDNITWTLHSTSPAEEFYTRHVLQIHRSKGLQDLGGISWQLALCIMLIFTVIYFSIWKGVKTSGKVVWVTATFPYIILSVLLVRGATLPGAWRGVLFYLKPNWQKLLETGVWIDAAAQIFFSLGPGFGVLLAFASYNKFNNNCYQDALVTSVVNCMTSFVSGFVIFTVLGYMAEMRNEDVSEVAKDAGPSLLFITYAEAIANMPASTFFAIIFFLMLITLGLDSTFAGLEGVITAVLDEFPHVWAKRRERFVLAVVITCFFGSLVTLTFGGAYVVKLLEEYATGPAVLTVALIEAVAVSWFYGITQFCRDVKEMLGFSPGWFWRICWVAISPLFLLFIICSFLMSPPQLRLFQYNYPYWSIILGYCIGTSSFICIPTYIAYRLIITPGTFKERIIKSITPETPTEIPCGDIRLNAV
M1, sequence (P11229 whole entry): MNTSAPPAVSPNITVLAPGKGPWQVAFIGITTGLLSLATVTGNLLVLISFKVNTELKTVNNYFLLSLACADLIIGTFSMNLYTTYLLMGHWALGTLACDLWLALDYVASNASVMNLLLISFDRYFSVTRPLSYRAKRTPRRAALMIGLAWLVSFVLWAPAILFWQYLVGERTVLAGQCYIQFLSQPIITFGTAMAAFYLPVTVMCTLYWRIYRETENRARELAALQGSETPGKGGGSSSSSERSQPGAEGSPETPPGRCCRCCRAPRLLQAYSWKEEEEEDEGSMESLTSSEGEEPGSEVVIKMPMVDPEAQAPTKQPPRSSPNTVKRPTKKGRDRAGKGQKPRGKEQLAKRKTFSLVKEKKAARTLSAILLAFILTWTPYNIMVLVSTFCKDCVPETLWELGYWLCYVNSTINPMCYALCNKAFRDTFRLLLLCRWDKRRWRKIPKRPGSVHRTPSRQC
H3, sequence (Q9Y5N1 whole entry): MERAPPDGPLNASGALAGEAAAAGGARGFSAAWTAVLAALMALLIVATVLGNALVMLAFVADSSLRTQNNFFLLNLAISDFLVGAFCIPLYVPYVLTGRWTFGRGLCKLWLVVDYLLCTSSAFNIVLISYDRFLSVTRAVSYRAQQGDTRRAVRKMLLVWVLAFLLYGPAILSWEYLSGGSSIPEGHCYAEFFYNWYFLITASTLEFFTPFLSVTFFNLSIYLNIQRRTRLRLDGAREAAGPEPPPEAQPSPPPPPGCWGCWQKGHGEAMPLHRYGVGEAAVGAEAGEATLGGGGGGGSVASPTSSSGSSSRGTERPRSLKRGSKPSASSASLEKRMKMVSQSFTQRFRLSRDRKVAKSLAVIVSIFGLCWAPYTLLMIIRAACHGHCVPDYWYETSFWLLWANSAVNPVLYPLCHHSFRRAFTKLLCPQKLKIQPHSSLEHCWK

Regarding `Clc1ccccc1C(Cc1ccccc1)N1CCCCC1` (centres unmarked) [2-Cl-DPH, 2-Cl-diphenidine], the Ki amounted to 615 nM in test [1]; 1820 nM in test [3]; 642 nM in [4]; 2690 nM in test [5]; 291 nM in test [6]; 357 nM in [7]. The Ki stood at 910 nM in [8]; 2060 nM in [10]; 278 nM in [13]; 828 nM in [15]; 9.3 ± 1.3 nM in test [16]; 474 nM in [17]. Moreover, the IC50 in [2] was 14.6 ± 2.1 nM; in test [9], greater than 10000 nM; in test [12] it was 27100 nM; in [14], 10500 nM. Further, the NMDAR affinity result in test [11] is given as “pM affinity”. In [12], the “Hill slope NET reuptake inhibition” value was found to be 1.02. Moreover, the “affinities at muscarinic sites relative to NMDAR” value in test [13] (less than for NMDAR) was determined as 30 fold. In addition, the “Hill slope DAT reuptake inhibition” value in test [14] amounted to 0.65.

Regarding `COc1cccc(C(Cc2ccccc2)N2CCCCC2)c1` (centres unmarked) [3-MXP, 3-methoxy-diphenidine], the Ki turned out to be 2300 nM in [1]; 2260 nM in [4]; 2030 nM in test [18]; 1120 nM in [6]; 88 nM in [7]; 2970 nM in test [8]. Further, the Ki came out at 2400 nM in test [13]; 325 nM in test [19]; 19.3 ± 1.7 nM in [16]; 1470 nM in test [20]; 633 nM in test [17]. In addition, the IC50 in test [2] was 30.3 ± 2.6 nM; in test [9] it was greater than 10000 nM; in test [12] it was 2710 nM; in test [14] it was 587 nM. Also, the “Hill slope NET reuptake inhibition” value in test [12] was determined as 0.95. In addition, the “Hill slope DAT reuptake inhibition” value in test [14] is 0.92.

For `COc1ccc(C(Cc2ccccc2)N2CCCCC2)cc1` (centres unmarked) [4-MXP, 4-methoxy-diphenidine], the Ki in test [1] was determined as 2400 nM; in [3] it was 2510 nM; in test [18], 4530 nM; in test [6] it was 2760 nM; in test [7], 157 nM; in test [8], 1620 nM. Further, the Ki turned out to be 2430 nM in [13]; 2700 nM in test [19]; 461 ± 44.5 nM in test [16]; 556 nM in test [20]; 564 nM in test [17]. In addition, the IC50 came out at 724 ± 69.9 nM in test [2], 19000 nM in test [9], 22500 nM in test [12] and 2230 nM in test [14]. The “affinity at DAT relative to NMDAR” value in test [7] (higher at DAT) is reported as ~ 2.5 fold. For the same compound, in [9] (HEK293 cells), the “Hill slope SERT reuptake inhibition” value worked out at 1.12. Further, the “Hill slope NET reuptake inhibition” value in test [12] was found to be 1.75. For the same compound, in [14], the “Hill slope DAT reuptake inhibition” value is recorded as 0.96.

With `c1ccc(C[C@H](c2ccccc2)N2CCCCC2)cc1` [(R)-DPH], the Ki in test [21] is 5250 nM.

`c1ccc(C[C@@H](c2ccccc2)N2CCCCC2)cc1` [(S-)-DPH]: the Ki in test [21] is 120 nM.

Take `NC(CCCP(=O)(O)O)C(=O)O` [D-AP5, reference compound]: in [22], the “small persistent deflection remaining of the NMDAR-fEPSP” value is less than 20%.

Take `CNC1(c2ccccc2Cl)CCCCC1=O` (centres unmarked) [Ketamine, ketamine, reference compound]: in test [2], the concentration for half-maximal inhibition (IC50) worked out at 508 ± 30.1 nM. Besides, the Ki in test [16] amounted to 324 ± 19.2 nM.

`CC12CC3CC(C)(C1)CC(N)(C3)C2` [Memantine, memantine hydrochloride]: inhibition in test [2] was half-maximal at 594 ± 41.3 nM (IC50). The “[3H]-MK-801 binding counts (Count1-3)” value in test [16] (Assay 6, memantine concentration 1.00E-04) was 54.75 and 56.13 and 57.01; in test [16] (Assay 6, memantine concentration 1.00E-05) it was 80 and 85.76 and 84.26; in test [16] (Assay 6, memantine concentration 1.00E-06), 302 and 309.15 and 302.79; in [16] (Assay 6, memantine concentration 1.00E-07) it was 630.88 and 668.92 and 629.83; in [16] (Assay 6, memantine concentration 1.00E-08), 740.13 and 745.68 and 749.23; in [16] (Assay 6, memantine concentration 1.00E-09), 755.01 and 781.68 and 787.36. Besides, the “[3H]-MK-801 binding counts (Count1-3)” value in [16] (Assay 6, memantine concentration 1.00E-10) is 758.88 and 769.56 and 771.23; in test [16] (Assay 6 duplicate, memantine concentration 1.00E-04) it was 49.38 and 49.13 and 46.88; in test [16] (Assay 6 duplicate, memantine concentration 1.00E-05), 91.38 and 89.51 and 86.76; in test [16] (Assay 6 duplicate, memantine concentration 1.00E-06) it was 307.63 and 313.65 and 307.54; in test [16] (Assay 6 duplicate, memantine concentration 1.00E-07) it was 637.88 and 639.55 and 638.34; in test [16] (Assay 6 duplicate, memantine concentration 1.00E-08), 730.14 and 762.94 and 750.86. The “[3H]-MK-801 binding counts (Count1-3)” value in [16] (Assay 6 duplicate, memantine concentration 1.00E-09) was 757.26 and 761.06 and 761.99; in test [16] (Assay 6 duplicate, memantine concentration 1.00E-10), 762.51 and 773.44 and 773.61. The Ki in test [16] amounted to 378 ± 26.3 nM.

The record behind these values is article PMC4912077 (PLoS ONE, 2016).
